Measurements from patent US12594263B2, “CBL inhibitors and compositions for expansion of immune cells” (Nurix Therapeutics, Inc., priority 2019, dated 2026).

Key:
[1] = tested on: OT-1 cells; experiment: Re-stimulation of harvested splenocytes with OVA Class I peptide; format: cell-based, mouse
Procedure: The expanded OT-1 cells were characterized by FACS analysis and transferred into E.G7-OVA mice, which bear ovalbumin (OVA) expressing tumors. Following in vivo transfer of expanded OT-1 cells, antitumor response was monitored over time and the quality and quantity of immune response was assessed at various time points. Analysis included FACS analysis on blood, tumor, and spleen samples. Analysis also included re-stimulation of splenocytes with OVA Class I peptide to evaluate the multifunctionality of the antigen-specific effector T cells.
Expanded OT-1 cells were assessed from splenocytes 11 days after transfer. Harvested splenocytes were re-stimulated with OVA Class I peptide for 72 hours.
Expanded OT-1 cells were assessed from splenocytes 11 days after transfer. Harvested splenocytes were re-stimulated with OVA Class I peptide for 4 hours.
Expanded OT-1 cells were assessed from splenocytes 11 days after transfer. Harvested splenocytes were re-stimulated with OVA Class I peptide for 24 hours.

[2] = tested on: human T cells from donor PBMC; experiment: Flow cytometry immunophenotyping of T cells expanded from donor PBMC; format: cell-based
Source text: (§1) At day eleven, cells were pooled and counted, and immunophenotyped at day 11 by flow cytometry by measuring expression of lineage (CD4, CD8) and differentiation (including CD45RA, CD45RO, CD95, CCR7, CD62L, TCF1, PD-1, TIM3, LAG3) markers.
(§2) T lymphocytes were defined based on lineage and differentiation marker expression according to the developmental model (Restifo, Blood, 124:476-477, 2014), as shown in Table 4.

[3] = tested on: human tumor-infiltrating lymphocytes (TIL); experiment: Flow cytometry immunophenotyping of expanded TIL (lineage and memory markers); format: cell-based; details: for CD4 TCM CD62L+ CCR7+, percentage of total TIL cell number on day 28: TIL1 population, alone or with IL-2
Procedure: The plates were placed in a humidified 37° C. incubator with 5% CO2. Half of the medium was replaced every two days after culture initiation. […] Subsequently, half the media was replaced thrice weekly, cultures were split to maintain a cell density of 1×10^6 cells/mL. […] Mitochondrial markers including, Mitotracker, Mitoprobe, and 2-NBDG may also be used to assess differentiation and/or activation of cells.
as §2

[4] = tested on: E.G7-OVA tumor cells; experiment: Tumor re-challenge of long term survivors 149 days after OT-1 transfer; format: in vivo, mouse
Source text: To determine whether OT-1 cells are capable of long-term tumor protection, the long term survivors of the above experiment (FIG. 12) were re-challenged with a lethal dose of E.G7-OVA tumor cells 149 days after the initial adoptive transfer of the in vitro expanded OT-1 cells. Re-challenge induced OT-1 cell expansion at the site engrafted with E.G7-OVA tumor cells expressing ovalbumin antigen, thereby effectively controlling tumor growth (FIG. 21).

[5] = tested on: TIL from ovarian, colon and breast cancer tissues; experiment: Phenotype of TIL expanded 14 days in GREX 10 flasks; format: cell-based, human; details: GREX 10 format, versus IL-2 alone (FIG. 26)
Procedure: TIL directly derived from fresh ovarian, colon and breast cancer tissues (fresh, n=7) obtained after 14 days' ex vivo culture of cancer tissue fragments were analyzed by flow cytometry.
TIL directly derived from fresh ovarian, colon and breast cancer tissues (fresh, n=7) obtained after 14 days' ex vivo culture of cancer tissue fragments were analyzed by flow cytometry. FIG. 26 provides FACS data showing percentages of central memory (CD45RO+CD8+) and effector memory (CD45RO+CD8-) phenotype among CD8+CD45RO+, respectively. FACS results were expressed as the mean SEM.

[6] = tested on: human T cells from peripheral blood mononuclear cells; experiment: Expansion of CMV pp65 reactive T cells from peripheral blood mononuclear cells; format: cell-based; details: for Percentage of total cell number relative to IL-2 alone on day 11: alone or with IL-2 2 ng/mL
Source text: as §1

[7] = tested on: breast TIL; experiment: CDR3 diversity of expanded breast TIL (iRepertoire sequencing); format: cell-based, human; details: 14 days in GREX 10 (FIGS. 32A-C)
Procedure: TIL were cultured for 14 days in GREX™10. […] The raw data were analyzed by iRepertoire using IRmap programs with a modified Smith-Waterman algorithm. Using CDR3algebra software, the calculation of shared CDR3s across samples with the indicated treatment was assessed. […] All CDR3 frequencies were scaled to 10 million reads to account for differences in read depth among samples. Data was normalized so that each uCDR3-VDJ combination was treated as a quantity of 1 regardless of read count, and then analyzed for V usage and J usage.

C[C@@H]1CN(Cc2cc3c(c(C(F)(F)F)c2)CN(c2cccc(C4(Cc5nncn5C)COC4)c2)C3=O)CCC1(F)F [Compound 103]
Exhaustion markers (PD1 and TIM3) in multifunctional cells ([1]; OVA Class I peptide 4 hours, versus IL-2 alone (FIG. 16C)): lower level of expression of exhaustion markers (PD1 and TIM3)
Multifunctionality (IFN-gamma and TNF-alpha double positive cells) ([1]; OVA Class I peptide 4 hours, versus IL-2 alone (FIGS. 16A, 16B)): comparable multifunctionality
IL-2 production upon restimulation ([1]; OVA Class I peptide 24 hours (FIG. 17B)): increased IL-2 production upon restimulation
Ability to proliferate in response to peptide restimulation ([1]; splenocytes 11 days after transfer, OVA Class I peptide 72 hours (FIG. 15)): superior intrinsic ability to proliferate in response to peptide restimulation
Percentage of CD8+ cells in culture ([2]; 1 μM Cbl inhibitor alone, versus IL-2 alone): higher percentages of CD8+ cells than those cultured in IL-2 alone
Phenotype of human T cells expanded ex vivo ([2]; donor PBMC, Table 7): TSCM (CD45RA+, CD95+, CCR7+, CD62L+), TCM (CD45RO+, CD95+, CCR7+, CD62L+) or TEM (CD45RO+, CD95+, CCR7−, CD62L−) phenotype
CD4 TsCM, percentage of total cell number on day 11 ([2]; donor PBMC, 0.1 μM Cbl-i, alone or with IL-2): 12%
Selective expansion of CD8+ T lymphocytes ([2]; donor PBMCs, FIGS. 2A and 2B): selectively expand CD8+ T lymphocytes from donor PBMCs
CD4 TCM CD62L+ CCR7+, percentage of total TIL cell number on day 28 ([3]; 0.1 μM Cbl-i): 2.8%
CD4 TCM CD62L+ CCR7+, percentage of total TIL cell number on day 28 ([3]; 1.0 μM Cbl-i): 8.0%
Phenotype of human TIL expanded ex vivo ([3]; Table 5): TCM (CD45RO+, CD95+, CCR7+, CD62L+) or TEM (CD45RO+, CD95+, CCR7−, CD62L−) phenotype
Expansion of CD8+ versus CD4+ T lymphocytes in TIL culture ([3]; tumor sample, FIG. 7): selectively expand CD8+ T lymphocytes
Protection from tumor re-challenge (FIG. 21) ([4]; OT-1 cells expanded in vitro): potent memory cells capable of protecting mice from tumor re-challenge
Number of OT-1 cells in blood 149 days after initial adoptive transfer ([4]; before re-challenge (FIG. 22A)): higher number in the blood
Recall response, number of OT-1 cells per ml of blood ([4]; day 5 after tumor re-challenge, versus IL-2 alone (FIG. 22B)): significantly more rapid recall response
CD8+ central memory T cells [5]: increases CD8+ central memory T cells
Percentage of total cell number relative to IL-2 alone on day 11 ([6]; Donor 1, 0.1 μM Cbl-i): 12%
Percentage of total cell number relative to IL-2 alone on day 11 ([6]; Donor 1, 1.0 μM Cbl-i): 12%
Percentage of total cell number relative to IL-2 alone on day 11 ([6]; Donor 1, 10 μM Cbl-i): 44%
Percentage of total cell number relative to IL-2 alone on day 11 ([6]; Donor 2, 0.1 μM Cbl-i): 70%
Percentage of total cell number relative to IL-2 alone on day 11 ([6]; Donor 2, 1.0 μM Cbl-i): 95%
Percentage of total cell number relative to IL-2 alone on day 11 ([6]; Donor 2, 10 μM Cbl-i): 45%
Percentage of total cell number relative to IL-2 alone on day 11 ([6]; Donor 3, 1.0 μM Cbl-i): 75%
Percentage of total cell number relative to IL-2 alone on day 11 ([6]; Donor 3, 10 μM Cbl-i): 38%
Expansion of T cells in the absence of IL-2 ([6]; PBMC, no IL-2): considerable expansion of T cells
Unique CDR3s [7]: increased
